Patent publication US20250163484A1, “Methods for Incorporating Azido Groups in Bacterial Capsular Polysaccharides” (PFIZER INC., priority 2022, published 2025)
Values joined by “and” are separate entries in the source; they are usually repeats but may differ in a detail not shown here. Equal values may be shown once. Read-outs that look alike come from different tables or passages of the source.

Tests used:
S. pneumoniae T14 = test: Growth of S. pneumoniae T14 in fermentation with azido sugar (OD600); assay type: cell-based, Streptococcus pneumoniae serotype 14; details: production media + 2AzGlc (10 mM)
Procedure: FIGS. 1A-1D. Screen for azido sugar incorporation into S. pneumoniae T14 capsule polysaccharide. Vessels (100 mL working volume) were inoculated with a 10-fold dilution of bacteria grown in seed expansion media supplemented with Galactose (30 g/L) (OD600=1.0-1.2) and incubated at 36° C. and 173 rpm with an air overlay of 1.5 SLPH. Media (production medium supplemented with Glucose (30 g/L) (black bars) or production medium supplemented with Galactose (30 g/L) (grey bars)) pH was controlled at 7.0. Bacteria were grown until the ΔOD600≥0 for >30 minutes, then lysed with 0.1% NLS for 30 minutes. Growth was measured offline using a spectrophotometer blanked with PBS at 600 nm. (FIG. 1A) azido incorporation into polysaccharide was then quantified via fluorescent labeling (FL) with normalization to refractive index (RI). MaxOD and End Of Fermentation time (EOF) are provided in (FIG. 1B) and (FIG. 1C), respectively. Polysaccharide was extracted using EtOH and CaCl2 and analyzed via SEC-RI for (FIG. 1D) polysaccharide titer. n=1-4, error bars=+/−StDev.
To identify azido sugars that could incorporate into S. pneumoniae T14 capsule, we grew S. pneumoniae T14 (serotype 14) in the production medium supplemented with various azido sugars (Table 3) supplied at 1 mM. We performed our screen using both production medium supplemented with Glucose (dextrose, 30 g/L) and production medium supplemented with Galactose (30 g/L).
We tested the impact of 2AzGlc concentration on S. pneumoniae T14 growth, polysaccharide production, and azido incorporation by growing the bacteria in production media (supplemented with Glucose (dextrose, 30 g/L)) with various concentrations of 2AzGlc (0, 1, 5, 10, 20, 40, and 60 mM).
To improve the incorporation of 2AzGlc into S. pneumoniae T14 capsule in production media (supplemented with Glucose (dextrose, 30 g/L)), we performed a 16-vessel DOE designed to test the impact of pH (6.33, 6.66, 7.00, and 7.33) and agitation (100, 200, and 300 rpm) on four response variables (MaxOD, Poly Titer, Poly Size, and FL/RI).

[1] = tested on: S. pneumoniae T14 capsule polysaccharide; assay type: cell-based, Streptococcus pneumoniae serotype 14
Procedure: FIGS. 1A-1D. Screen for azido sugar incorporation into S. pneumoniae T14 capsule polysaccharide. […] Bacteria were grown until the ΔOD600≥0 for >30 minutes, then lysed with 0.1% NLS for 30 minutes. Growth was measured offline using a spectrophotometer blanked with PBS at 600 nm. (FIG. 1A) azido incorporation into polysaccharide was then quantified via fluorescent labeling (FL) with normalization to refractive index (RI). MaxOD and End Of Fermentation time (EOF) are provided in (FIG. 1B) and (FIG. 1C), respectively. Polysaccharide was extracted using EtOH and CaCl2 and analyzed via SEC-RI for (FIG. 1D) polysaccharide titer. n=1-4, error bars=+/−StDev.
A SEC fluorescence and Refractive index assay (SEC-FL/RI) was used for azide measurement to confirm the incorporation of azide modification.
Click-It Cell Reaction Buffer kit and Alexa Fluor 488 Alkyne were purchased from Invitrogen.
The initial procedure when running the SEC-FL/RI was to prepare the sample to a target concentration of 0.01 mg/m by mixing a pre-diluted polysaccharide to the final target concentration with the Click Reaction mixture. The reaction mixture consisted of 2.67 mM CuSO4, 2.67 mg/mL cell additive reagent, and 20 uM Alexa Fluor Alkyne. This was mixed with the sample at a 3:1 ratio of reaction mixture to sample and incubated in the absence of light. Reactions were transferred to HPLC vials and ran on the SEC-FL/RI HPLC setup. The RI detector (RID) allowed for detection of the polysaccharide while the Fluorescence Detector (FLD) was used to determine the level of fluor incorporated into the polysaccharide sample. The ratio of the two peak areas gave a measurement for the amount of azide incorporated to the polysaccharide.
Later, in addition to the incubation of the sample for thirty minutes, a buffer exchange step was added that washed out the unreacted fluor as well as the reaction matrix reagents in order to improve the baselines of the FLD and RID during the HPLC run. This added greater resolution of the peak associated with the azide functionalized polysaccharide. The assay was useful for relative quantitation of azide incorporation into the polysaccharide but could not quantify an exact numerical concentration. To improve this aspect work was undertaken to use a polysaccharide with known levels of azido functionalization to make a standard curve that varied the % Azido while keeping the polysaccharide mass the same. This was done by mixing the known azido modified poly (polysaccharide) with specific amounts of native (unmodified) polysaccharide. A strong linear fit for the generated standard curve was seen.
The values for percent azide were able to be converted to a μM azide per mM polysaccharide by converting from % azide using the constant polysaccharide concentration.

[N-]=[N+]=N[C@@H](C=O)[C@@H](O)[C@H](O)[C@H](O)CO [2AzGlc, 2-Azido-2-deoxy-D-glucose]
MaxOD600 nm (S. pneumoniae T14; pH 6.33, agitation 100 rpm): 12.1 and 13.6 | MaxOD600 nm (S. pneumoniae T14; pH 6.33, agitation 300 rpm): 10.8 and 10.7 | MaxOD600 nm (S. pneumoniae T14; pH 7, agitation 100 rpm): 8.8 and 7.8 | MaxOD600 nm (S. pneumoniae T14; pH 7.33, agitation 100 rpm): 8.9 and 9.6 | MaxOD600 nm (S. pneumoniae T14; pH 7.33, agitation 200 rpm): 8.5 and 8.3 | increase between lowest and higher FL/RI achieved ([1]; 2AzGlc titration 1-60 mM, production media + Glucose (dextrose, 30 g/L)): 10 fold | FL/RI ([1]; azido feed DOE: Gal 30 g/L, initial 2AzGlc 0 mM, 2AzGlc feed stock 4 mM, pH 7.33, 300 rpm): 101.45 and 103.61 | FL/RI ([1]; azido feed DOE: Gal 30 g/L, initial 2AzGlc 0 mM, 2AzGlc feed stock 6.5 mM, pH 7.33, 300 rpm): 113.82 and 121.9 | FL/RI ([1]; azido feed DOE: Gal 30 g/L, initial 2AzGlc 0.1 mM, 2AzGlc feed stock 4 mM, pH 7.33, 300 rpm): 116.16 and 116.31 | FL/RI ([1]; azido feed DOE: Gal 30 g/L, initial 2AzGlc 0.1 mM, 2AzGlc feed stock 6.5 mM, pH 7.33, 300 rpm): 84.53 and 83.69 | FL/RI ([1]; azido feed DOE: Gal 40 g/L, initial 2AzGlc 0 mM, 2AzGlc feed stock 4 mM, pH 7.33, 300 rpm): 97.04 and 114.22 | FL/RI ([1]; azido feed DOE: Gal 40 g/L, initial 2AzGlc 0 mM, 2AzGlc feed stock 6.5 mM, pH 7.33, 300 rpm): 122.7 and 110.09 | FL/RI ([1]; azido feed DOE: Gal 40 g/L, initial 2AzGlc 0.1 mM, 2AzGlc feed stock 4 mM, pH 7.33, 300 rpm): 125.02 and 122.41 | FL/RI ([1]; azido feed DOE: Gal 40 g/L, initial 2AzGlc 0.1 mM, 2AzGlc feed stock 6.5 mM, pH 7.33, 300 rpm): 79.3 and 63.19 | FL/RI ([1]; fed-batch, initial galactose 5.0 g/L, 0.25 mM 2AzGlc, galactose feed rate FR #1): 45 | FL/RI ([1]; fed-batch, initial galactose 5.0 g/L, 0.25 mM 2AzGlc, galactose feed rate FR #2): 18 | average FL/RI ([1]; initial galactose 40 g/L, initial 2AzGlc 0.1 mM, 4.0 mM 2AzGlc feed stock): 123.7 | FL/RI ([1]; production media + 2AzGlc (10 mM), pH 6.33, agitation 100 rpm): 91.9 and 100.7 | FL/RI ([1]; production media + 2AzGlc (10 mM), pH 6.33, agitation 300 rpm): 98.3 and 97.5 | FL/RI ([1]; production media + 2AzGlc (10 mM), pH 6.66, agitation 200 rpm): 114.5 and 135.0 | FL/RI ([1]; production media + 2AzGlc (10 mM), pH 7, agitation 100 rpm): 117.8 and 118.8 | FL/RI ([1]; production media + 2AzGlc (10 mM), pH 7, agitation 300 rpm): 115.7 and 107.5 | FL/RI ([1]; production media + 2AzGlc (10 mM), pH 7.33, agitation 100 rpm): 137.4 and 158.3 | FL/RI ([1]; production media + 2AzGlc (10 mM), pH 7.33, agitation 200 rpm): 140.8 and 125.0 | FL/RI ([1]; production media + 2AzGlc (10 mM), pH 7.33, agitation 300 rpm): 113.9 and 137.3 | FL/RI ([1]; production media + Glucose (dextrose, 30 g/L), media pH 7, 2AzGlc 1 mM): 15 | FL/RI ([1]; production media + Glucose (dextrose, 30 g/L), media pH 7, 2AzGlc 5 mM): 61 | FL/RI ([1]; production media + Glucose (dextrose, 30 g/L), media pH 7, 2AzGlc 10 mM): 118 | FL/RI ([1]; production media + Glucose (dextrose, 30 g/L), media pH 7, 2AzGlc 20 mM): 146 | FL/RI ([1]; production media + Glucose (dextrose, 30 g/L), media pH 7.33, 2AzGlc 20 mM): 148 | FL/RI ([1]; production media + Glucose (dextrose, 30 g/L), media pH 7.33, 2AzGlc 40 mM): 157 | FL/RI ([1]; production media + Glucose (dextrose, 30 g/L), media pH 7.33, 2AzGlc 60 mM): 151 | FL/RI ([1]; production medium + Galactose (30 g/L) + 2AzGlc (0.25 mM), pH 6.33, agitation 100 rpm): 51.73 and 50.26 | FL/RI ([1]; production medium + Galactose (30 g/L) + 2AzGlc (0.25 mM), pH 6.33, agitation 200 rpm): 48.41 | FL/RI ([1]; production medium + Galactose (30 g/L) + 2AzGlc (0.25 mM), pH 6.33, agitation 300 rpm): 45.24 and 44.39 | FL/RI ([1]; production medium + Galactose (30 g/L) + 2AzGlc (0.25 mM), pH 6.66, agitation 100 rpm): 78.29 | FL/RI ([1]; production medium + Galactose (30 g/L) + 2AzGlc (0.25 mM), pH 6.66, agitation 300 rpm): 77.94 | FL/RI ([1]; production medium + Galactose (30 g/L) + 2AzGlc (0.25 mM), pH 7, agitation 200 rpm): 97.25 | FL/RI ([1]; production medium + Galactose (30 g/L) + 2AzGlc (0.25 mM), pH 7.33, agitation 100 rpm): 101.26 and 88.76 | FL/RI ([1]; production medium + Galactose (30 g/L) + 2AzGlc (0.25 mM), pH 7.33, agitation 300 rpm): 110 and 109.76 and 110.12 | FL/RI ([1]; screen, azido sugar 1 mM, production medium + Glucose (dextrose, 30 g/L)): detectable
